In paper PMC3236199, “Development of Derivatives of 3, 3′-Diindolylmethane as Potent Leishmania donovani Bi-Subunit Topoisomerase IB Poisons” (PLoS ONE, 2011):

What was measured:
[1] = system: L. donovani AG83 amastigotes in Balb/c mouse peritoneal macrophages; assay: In vitro macrophage infection, clearance of intracellular amastigotes; type: cell-based, Leishmania donovani; conditions: 50 µM, 24 h, infected mouse macrophages
Source text: Balb/c mice, originally obtained from Jackson Laboratories, Bar Harbor, ME and reared in the institute animal facilities, were used for experimental purposes with prior approval of the animal ethics committee. Macrophages were isolated from mice 36 to 48 hr post injection (intraperitoneal) with 2% (w/v) hydrolyzed starch by peritoneal lavage with ice-cold phosphate-buffered saline. Cells were washed and cultured for 18–24 hr (for adherence) in RPMI 1640 (supplemented with 100 IU/ml of penicillin and […] of streptomycin) containing 10% (v/v) heat-inactivated FBS (RPMI-FBS) at 37°C with 5% CO2 in air on sterile cover glass (22 mm×22 mm) placed in disposable plates 35 mm in diameter (Tarsons India Ltd.). The culture medium was washed off and fresh RPMI-FBS was added. About 5×10^5 macrophages were maintained for proper distribution on cover glass. During the course of this study, macrophages were infected with promastigotes at a macrophage-to-parasite ratio of 1∶10 in RPMI-FBS for 6 hours to ensure entry of parasite. Following incubation, unphagocytosed parasites were removed by washing with medium, and cells were resuspended in RPMI-FBS at 37°C, 5% CO2 and then incubated for 6 hrs. Cultures were transferred to a CO2 incubator at 37°C and incubated for another 10–12 hr. Respective inhibitors were added at different concentrations (ranging from 5 µM to 50 µM) to infected macrophages and left for another 24 hr period. Cells were then fixed in methanol and stained with 2% Giemsa. Percentages of infected cells and total number of intracellular parasites were determined by manual counting in at least 200 cells using light microscope.
Primary macrophage cells were obtained from Balb/c mice peritoneal extrudates. After adherence and inactivation, these macrophage cells were infected with early passaged L. donovani AG83 promastigotes were infected to macrophages. After subsequent washing they were incubated with different concentrations (5, 10, 20 and 50 µM) of each of these inhibitors for 24 h (Fig. 3A). Macrophages were fixed and intracellular amastigotes were counted by Giemsa staining. […]
Figure 3 Effectiveness of clearance of internalized L. donovani (AG83) from in vitro infected mouse M [drawing 3] . […] Cells were fixed, stained with Giemsa and counted under bright field microscope. […] Experiments were carried out for three times and representative results are the mean ± S.D. (B) Growth of DIM resistant L. donovani axenic amastigotes were monitored in presence of increasing concentrations (2, 5, 10, 20 and 50 µM) of DIM, DPDIM, DMDIM and DMODIM for 12 h. […] Growth of the parasites treated with the compounds was expressed as percentage of the viable promastigotes compared with that of control. […]

[2] = target: CT DNA; assay: Spectrofluorometric binding assay (fluorescence quenching); conditions: for Kd: CT DNA 10 to 200 µM, 25°C, Scatchard analysis, read-out: dissociation constant (KD)
Protocol: Fluorescence titration was measured using Perkin Elmer, LS55, and Luminescence spectrometer. The intrinsic binding of DIM-derivatives to DNA was performed separately by fluorescence measurements at an excitation wavelength of 335 nm, 265 nm and 338 nm and emission range of 350 to 450 nm, 300 to 450 nm and 380 to 540 nm for DPDIM, DMDIM and DMODIM, respectively. Excitation and emission slit widths were 5 nm and 7.5 nm; 5 nm and 15 nm; and 5 nm and 15 nm for DPDIM, DMDIM and DMODIM, respectively. Background emission (<2%) was corrected by subtraction of spectra of blank buffer, DNA plus sample buffer and compounds plus sample buffer, respectively. Spectral titration was performed with DIM derivatives at 25°C in fluorescence buffer (20 mM Tris-HCL, pH 7.5, 50 mM NaCl and 10 mM MgCl2). CT DNA was added in increasing concentrations (10 to 200 µM), which are indicated in the legend. All the assays were performed in duplicate, titration points are corrected as described above and binding constants for DIM DNA-compound interaction were determined according to following equation: [drawing 2] (Eq–1) where ΔF = Fx−Fo, Fx and Fo representing the florescence intensity of DIM derivatives in the presence or absence of the added total DNA (St), respectively. ΔFmax is the maximum change in the fluorescence intensity. The intercept of the plot on the 1/F axis corresponding to 1/St = 0 measures the 1/Fmax, while the slope gives the estimation of the affinity constant (Ka). The dissociation constant KD = 1/Ka.
Therefore, it was of interest to determine whether DIM derivatives could interact with DNA. Fluorescence quenching assay was performed to determine the interaction between the derivatives of DIM and DNA at different concentrations of DNA (10 to 200 µM). DPDIM has fluorescence emission maximum (λem ^max) at the wavelength of 390 nm with a λex of 335 nm, whereas DMDIM has fluorescence emission maximum at a wavelength of 379 nm with a λex of 265 nm and DMODIM has fluorescence emission maximum at a wavelength of 450 nm with a λex of 338 nm. The excitation and emission slit widths were set at 5 nm and 7.5 nm for DPDIM, 5 nm and 15 nm for DMDIM; and 5 nm and 15 nm for DMODIM. Appropriate blanks corresponding to the buffer were subtracted to correct the background fluorescence. The fluorescence intensity decreases by increasing the concentration of DNA due to quenching reaction. Addition of DNA causes a slight shift of the maximum peak (λ shift) from 390 nm to 386 nm for DPDIM and from 379 nm to 374 nm for DMDIM with a concomitant decrease in fluorescence intensity (Fig. 7A and B). There is no λ shift for DMODIM (Fig. 7C). A progressive change in the fluorescence spectra of three DIM-derivatives on addition of different concentrations of DNA indicated an association between them.
Figure 7 Fluorescence quenching study of DIM derivatives-DNA interaction. (A) CT DNA concentration-dependently quenched DPDIM fluorescence at 390 nm. (B) CT DNA concentration-dependently quenched DMDIM fluorescence at 379 nm. (C) CT DNA concentration-dependently quenched DMODIM fluorescence at 450 nm. The arrow of each figure indicates the change in the emission spectra of DPDIM, DMDIM and DMODIM respectively on addition of CT DNA.

Row | Structure (SMILES) | efficiency of amastigote killing (clearance from macrophages) [1] | Kd [2] [µM] | affinity to DNA less compared to DIM ([2]; versus DIM) [fold] | affinity to DNA greater compared to DIM ([2]; versus DIM mother compound) [fold]
1 | c1ccc2c(Cc3c[nH]c4ccccc34)c[nH]c2c1 [DIM, 3, 3′-diindolyl methane, reference compound] | 91% | – | – | –
2 | Cc1[nH]c2ccccc2c1Cc1c(C)[nH]c2ccccc12 [DMDIM, 2,2′-dimethyl 3,3′-diindolyl methane] | 92% | 63 | – | –
3 | COc1ccc2[nH]cc(Cc3c[nH]c4ccc(OC)cc34)c2c1 [DMODIM, 5,5′-dimethoxy 3,3′-diindolyl methane] | about 85% | 48 | ~2 | –
4 | c1ccc(-c2[nH]c3ccccc3c2Cc2c(-c3ccccc3)[nH]c3ccccc23)cc1 [DPDIM, 2,2′-diphenyl 3,3′-diindolyl methane] | 96% | 11 | – | 2
